# Laboratory results from US9132106B2, “Synergistic ophthalmic compositions for disinfecting contact lenses” (Abbott Medical Optics Inc., priority 2013, dated 2015).
# Tested on: Candida albicans ATCC 10231
# Experiment: Antimicrobial activity, 6 hr log kill of C. albicans
# Assay type: cell-based
# Description: The test procedure for testing antimicrobial activity against specified test organisms is as follows: A 10-mL aliquot of test sample was transferred into a single polypropylene test tube. Sterile Dulbecco's Phosphate-Buffered Saline with 0.05 w/v % Polysorbate 80 (DPBST) was transferred into a separate polypropylene test tube and used as a control. All samples and control were stored at 20-25° C. throughout the duration of the test. Test cultures of specified test organisms were cultured and prepared in the conventional manner using Saboraud Dextrose Agar (SDA) as the growth medium. The challenge organism inoculum was adjusted to approximately 1×10e7-1×10e8 CFU/mL in DPBST. Fifty μL of culture inoculum was added to 10.0 mL of each test sample and control, so that the final inoculum level was in the range of 1×10e5 to 1×10e6 CFU (colony forming units) per mL of specified test organism. Contact time intervals for testing activity against the specified test organism were typically within 4 or 6 hours, e.g., 15 minutes, 30 minutes, 45 minutes, 1 hour, 2 hours, 4 hours and 6 hours, to remain within the intended product label instructions for maximum contact lens soak time.
# Following incubation, the number of surviving organisms was enumerated by serial dilution and culture on SDA medium. An appropriate neutralizing disinfectant medium was used for performing serial dilutions (e.g. Letheen Neutralizing Broth containing 0.5% Polysorbate 80 media—LetheenT80). Additionally, the numbers of colony-forming-units (CFU) were counted and the Log 10 reduction in viable number calculated for test solutions based on the initial time zero challenge inoculum in the control solution.
# [1] = Table II formula, 6 hour soaking
molecule,measurement,setting,value
CCCCC(CC)CNC(=N)NC(=N)NCCCCCCNC(=N)NC(=N)NCC(CC)CCCC (stereo not drawn) [alexidine],log kill from alexidine alone in the same formula,"1.05 ppm alexidine, 6 hours, C. albicans",about 1.4 log
same,log kill of C. albicans (FIG. 1),"alexidine at 1.00 ppm in Table 1 formula, 6 hour soaking",1.3 log
[H]/N=C(\N/C(=N/[H])NCCCCCCNC(=N)NC(=N)Nc1ccc(Cl)cc1)Nc1ccc(Cl)cc1 [chlorhexidine],log kill from chlorhexidine alone in the same formula,"5.00 ppm chlorhexidine, 6 hours, C. albicans",about 0.5 log
same,chlorhexidine concentration needed to achieve a 2-log kill against C. albicans (FIG. 2),[1],> 12 ppm
same,chlorhexidine concentration needed to achieve a 3-log kill against C. albicans (FIG. 2),[1],> 15 ppm
"poly[(dimethyliminio)-2-butene-1,4-diyl chloride], α-[4-[tris(2-hydroxyethyl) ammonio]-2-butenyl]-Ω-[tris(2-hydroxyethyl)ammonio]-dichloride [PQ-1]",effect of PQ-1 on C. albicans (in words),in the presence of 0.65% trisodium citrate dihydrate,little effect
